# Assay results reported in US8541588B2, “Sulfonamide derivatives” (Pfizer Limited, priority 2009, dated 2013).
# pIC50: −log10 of the molar value.
# Target: T1, Nav1.7 (or SCN9A) channel; HEK cells stably transfected with hSCN9A (Homo sapiens, UniProt Q15858)
# T1 construct: expressed in transfected cells
# Experiment: Nav1.7 block, PatchXpress 7000 automated whole-cell voltage clamp, estimated IC50 (EIC50)
# Format: cell-based
# Conditions: estimated IC50; hSCN9A HEK cells, PatchXpress platform; Examples 815-1040
# T1 sequence (Q15858 whole entry): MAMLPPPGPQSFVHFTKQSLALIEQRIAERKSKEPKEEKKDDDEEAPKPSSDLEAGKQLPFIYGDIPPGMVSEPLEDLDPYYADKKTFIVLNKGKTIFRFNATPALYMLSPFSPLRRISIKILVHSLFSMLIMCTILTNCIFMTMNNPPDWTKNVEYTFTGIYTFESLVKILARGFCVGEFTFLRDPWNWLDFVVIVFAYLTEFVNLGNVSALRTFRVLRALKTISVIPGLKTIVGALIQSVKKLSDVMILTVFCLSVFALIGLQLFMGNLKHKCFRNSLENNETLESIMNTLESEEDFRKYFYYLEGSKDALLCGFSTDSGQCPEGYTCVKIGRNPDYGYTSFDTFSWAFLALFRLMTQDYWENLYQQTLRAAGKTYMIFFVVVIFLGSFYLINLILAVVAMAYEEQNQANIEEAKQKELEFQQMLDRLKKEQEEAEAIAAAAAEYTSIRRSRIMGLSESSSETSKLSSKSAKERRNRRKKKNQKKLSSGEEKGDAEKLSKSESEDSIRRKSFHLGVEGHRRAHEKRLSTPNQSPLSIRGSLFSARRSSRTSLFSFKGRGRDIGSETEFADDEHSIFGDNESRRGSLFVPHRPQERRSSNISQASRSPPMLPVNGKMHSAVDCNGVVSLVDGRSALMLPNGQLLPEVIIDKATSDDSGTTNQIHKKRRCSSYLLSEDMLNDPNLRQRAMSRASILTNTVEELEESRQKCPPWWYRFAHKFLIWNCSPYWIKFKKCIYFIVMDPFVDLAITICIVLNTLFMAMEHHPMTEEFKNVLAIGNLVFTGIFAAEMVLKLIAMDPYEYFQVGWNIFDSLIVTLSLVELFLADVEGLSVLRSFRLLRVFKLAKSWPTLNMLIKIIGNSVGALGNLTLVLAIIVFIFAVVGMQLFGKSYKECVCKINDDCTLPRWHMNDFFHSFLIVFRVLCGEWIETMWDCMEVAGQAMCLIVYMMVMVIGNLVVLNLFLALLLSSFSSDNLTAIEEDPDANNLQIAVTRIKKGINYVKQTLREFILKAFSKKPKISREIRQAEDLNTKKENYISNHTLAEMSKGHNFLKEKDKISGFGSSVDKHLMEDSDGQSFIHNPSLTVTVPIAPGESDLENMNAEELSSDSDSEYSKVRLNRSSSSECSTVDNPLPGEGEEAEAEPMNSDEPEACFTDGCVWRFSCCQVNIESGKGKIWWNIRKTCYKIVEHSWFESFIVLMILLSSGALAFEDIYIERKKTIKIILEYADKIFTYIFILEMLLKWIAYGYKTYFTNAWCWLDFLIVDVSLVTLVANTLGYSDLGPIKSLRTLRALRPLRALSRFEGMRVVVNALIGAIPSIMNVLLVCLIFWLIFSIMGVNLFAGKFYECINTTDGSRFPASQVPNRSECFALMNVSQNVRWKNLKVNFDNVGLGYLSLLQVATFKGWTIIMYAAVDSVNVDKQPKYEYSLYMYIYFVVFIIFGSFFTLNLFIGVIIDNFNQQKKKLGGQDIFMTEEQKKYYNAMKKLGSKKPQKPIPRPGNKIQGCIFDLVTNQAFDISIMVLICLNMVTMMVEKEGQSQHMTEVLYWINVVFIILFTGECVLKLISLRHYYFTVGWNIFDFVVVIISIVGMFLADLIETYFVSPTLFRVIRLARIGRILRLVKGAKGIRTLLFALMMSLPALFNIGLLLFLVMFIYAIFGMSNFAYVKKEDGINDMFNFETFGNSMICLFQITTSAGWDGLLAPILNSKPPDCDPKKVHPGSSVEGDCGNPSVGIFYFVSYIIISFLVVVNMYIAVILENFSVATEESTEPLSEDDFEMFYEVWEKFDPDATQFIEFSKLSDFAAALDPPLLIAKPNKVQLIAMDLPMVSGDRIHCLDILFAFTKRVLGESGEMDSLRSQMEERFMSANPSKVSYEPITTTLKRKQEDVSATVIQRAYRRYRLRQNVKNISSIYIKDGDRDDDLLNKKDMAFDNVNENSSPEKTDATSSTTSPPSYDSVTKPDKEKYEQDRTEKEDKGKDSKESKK
Structure (SMILES),IC50 [nM],pIC50
"Nc1cc(-c2cc(Cl)ccc2Oc2cc(F)c(S(=O)(=O)Nc3ncccn3)cc2Cl)ccn1 [Example 926, 4-[2-(2-aminopyridin-4-yl)-4-chlorophenoxy]-5-chloro-2-fluoro-N-pyrimidin-2-ylbenzenesulfonamide]",,7.17
"O=S(=O)(Nc1ncns1)c1ccc(Oc2ccc(C(F)(F)F)cc2-c2ccnnc2)c(Cl)c1 [Example 928, 3-chloro-4-[2-pyridazin-4-yl-4-(trifluoromethyl)phenoxy]-N-1,2,4-thiadiazol-5-ylbenzenesulfonamide]",,8.44
"O=S(=O)(Nc1ncns1)c1ccc(Oc2ccc(C(F)(F)F)cc2-c2ccnnc2)c(F)c1 [Example 929, 3-fluoro-4-[2-pyridazin-4-yl-4-(trifluoromethyl)phenoxy]-N-1,2,4-thiadiazol-5-ylbenzenesulfonamide]",,7.00
"O=S(=O)(Nc1ncns1)c1cc(F)c(Oc2ccc(F)cc2-c2ccnnc2)cc1F [Example 931, 2,5-difluoro-4-(4-fluoro-2-pyridazin-4-ylphenoxy)-N-1,2,4-thiadiazol-5-ylbenzenesulfonamide]",,6.85
"O=S(=O)(Nc1nncs1)c1cc(Cl)c(Oc2ccc(OC(F)(F)F)cc2-c2ccnnc2)cc1F [Example 932, 5-chloro-2-fluoro-4-[2-pyridazin-4-yl-4-(trifluoromethoxy)phenoxy]-N-1,3,4-thiadiazol-2-ylbenzenesulfonamide]",,7.12
"N#Cc1cc(S(=O)(=O)Nc2ncns2)ccc1Oc1ccc(C(F)(F)F)cc1-c1ccnn1C1CNC1 [Example 935, 4-[2-(1-azetidin-3-yl-1H-pyrazol-5-yl)-4-(trifluoromethyl)phenoxy]-3-cyano-N-1,2,4-thiadiazol-5-ylbenzenesulfonamide]",,8.42
"O=S(=O)(Nc1nncs1)c1cc(Cl)c(Oc2cc(C(F)(F)F)ccc2-c2ccnnc2)cc1F [Example 939, 5-chloro-2-fluoro-4-[2-pyridazin-4-yl-5-(trifluoromethyl)phenoxy]-N-1,3,4-thiadiazol-2-ylbenzenesulfonamide]",,7.32
"O=S(=O)(Nc1ncccn1)c1cc(Cl)c(Oc2ccc(Cl)cc2-c2ccnnc2)cc1F [Example 941, 5-chloro-4-(4-chloro-2-pyridazin-4-ylphenoxy)-2-fluoro-N-pyrimidin-2-ylbenzenesulfonamide]",,7.14
"O=S(=O)(Nc1nncs1)c1ccc(Oc2ccc(OC(F)(F)F)cc2-c2ccnnc2)c(Cl)c1 [Example 942, 3-chloro-4-[2-pyridazin-4-yl-4-(trifluoromethoxy)phenoxy]-N-1,3,4-thiadiazol-2-ylbenzenesulfonamide]",,7.46
"Cc1cc(S(=O)(=O)Nc2nncs2)c(F)cc1Oc1ccc(Cl)cc1-c1ccnnc1 [Example 943, 4-(4-chloro-2-pyridazin-4-ylphenoxy)-2-fluoro-5-methyl-N-1,3,4-thiadiazol-2-ylbenzenesulfonamide]",,7.11
"Nc1cc(-c2cc(Cl)ccc2Oc2ccc(S(=O)(=O)Nc3ccncn3)cc2Cl)ccn1 [Example 944, 4-[2-(2-aminopyridin-4-yl)-4-chlorophenoxy]-3-chloro-N-pyrimidin-4-ylbenzenesulfonamide]",,7.51
"N#Cc1cc(S(=O)(=O)Nc2nncs2)ccc1Oc1ccc(C(F)(F)F)cc1-c1ccnnc1 [Example 946, 3-cyano-4-[2-pyridazin-4-yl-4-(trifluoromethyl)phenoxy]-N-1,3,4-thiadiazol-2-ylbenzenesulfonamide]",,6.64
"N#Cc1cc(S(=O)(=O)Nc2ncns2)ccc1Oc1cc(C(F)(F)F)c(F)cc1-c1ccnnc1 [Example 948, 3-cyano-4-[4-fluoro-2-pyridazin-4-yl-5-(trifluoromethyl)phenoxy]-N-1,2,4-thiadiazol-5-ylbenzenesulfonamide]",,7.96
"Cn1nccc1-c1cc(Cl)ccc1Oc1ccc(S(=O)(=O)Nc2ncns2)cn1 [Example 950, 6-[4-chloro-2-(1-methyl-1H-pyrazol-5-yl)phenoxy]-N-1,2,4-thiadiazol-5-ylpyridine-3-sulfonamide]",2700,
"N#Cc1cc(S(=O)(=O)Nc2cscn2)ccc1Oc1ccc(C(F)(F)F)cc1-c1ccnnc1 [Example 953, 3-cyano-4-[2-pyridazin-4-yl-4-(trifluoromethyl)phenoxy]-N-1,3-thiazol-4-ylbenzenesulfonamide]",,6.96
"O=S(=O)(Nc1cscn1)c1cc(F)c(Oc2ccc(C(F)(F)F)cc2-c2ccnnc2)cc1F [Example 954, 2,5-difluoro-4-[2-pyridazin-4-yl-4-(trifluoromethyl)phenoxy]-N-1,3-thiazol-4-ylbenzenesulfonamide]",,6.62
"Cn1nccc1-c1cc(Cl)ccc1Oc1ccc(S(=O)(=O)Nc2ncccn2)cc1Cl [Example 955, 3-chloro-4-[4-chloro-2-(1-methyl-1H-pyrazol-5-yl)phenoxy]-N-pyrimidin-2-ylbenzenesulfonamide]",,7.12
"O=S(=O)(Nc1nncs1)c1cc(Cl)c(Oc2ccc(Cl)c(F)c2-c2ccnnc2)cc1F [Example 956, 5-chloro-4-(4-chloro-3-fluoro-2-pyridazin-4-ylphenoxy)-2-fluoro-N-1,3,4-thiadiazol-2-ylbenzenesulfonamide]",,6.89
"N#Cc1cc(S(=O)(=O)Nc2ncns2)ccc1Oc1cc(F)c(OC(F)(F)F)cc1-c1ccnnc1 [Example 958, 3-cyano-4-[5-fluoro-2-pyridazin-4-yl-4-(trifluoromethoxy)phenoxy]-N-1,2,4-thiadiazol-5-ylbenzenesulfonamide]",,8.23

# The remaining lines, values ahead:
IC50 [nM],pIC50,Structure (SMILES)
>10000,,"Cn1nccc1-c1cc(Cl)ccc1Oc1ccc(S(=O)(=O)Nc2cccnc2)cc1C#N [Example 923, 4-[4-chloro-2-(1-methyl-1H-pyrazol-5-yl)phenoxy]-3-cyano-N-pyridin-3-ylbenzenesulfonamide]"
,7.72,"N#Cc1cc(S(=O)(=O)Nc2ncns2)ccc1Oc1cc(F)c(Cl)cc1-c1ccnnc1 [Example 924, 4-(4-chloro-5-fluoro-2-pyridazin-4-ylphenoxy)-3-cyano-N-1,2,4-thiadiazol-5-ylbenzenesulfonamide]"
,6.18,"N#Cc1ccc(Oc2cc(F)c(S(=O)(=O)Nc3nncs3)cc2Cl)c(-c2ccnnc2)c1 [Example 925, 5-chloro-4-(4-cyano-2-pyridazin-4-ylphenoxy)-2-fluoro-N-1,3,4-thiadiazol-2-ylbenzenesulfonamide]"
120,,"Cn1nccc1-c1cc(Cl)ccc1Oc1ncc(S(=O)(=O)Nc2ncns2)cc1Cl [Example 927, 5-chloro-6-[4-chloro-2-(1-methyl-1H-pyrazol-5-yl)phenoxy]-N-1,2,4-thiadiazol-5-ylpyridine-3-sulfonamide]"
,6.64,"O=S(=O)(Nc1ncns1)c1ccc(Oc2cc(F)c(Cl)cc2-c2ccnnc2)c(F)c1 [Example 930, 4-(4-chloro-5-fluoro-2-pyridazin-4-ylphenoxy)-3-fluoro-N-1,2,4-thiadiazol-5-ylbenzenesulfonamide]"
>100,,"N#Cc1cc(S(=O)(=O)Nc2nncs2)ccc1Oc1ccc(OC(F)(F)F)cc1-c1ccnnc1 [Example 933, 3-cyano-4-[2-pyridazin-4-yl-4-(trifluoromethoxy)phenoxy]-N-1,3,4-thiadiazol-2-ylbenzenesulfonamide]"
,7.28,"O=S(=O)(Nc1ncns1)c1ccc(Oc2cc(Cl)c(F)cc2-c2ccnnc2)c(F)c1 [Example 934, 4-(5-chloro-4-fluoro-2-pyridazin-4-ylphenoxy)-3-fluoro-N-1,2,4-thiadiazol-5-ylbenzenesulfonamide]"
,8.10,"O=S(=O)(Nc1ncns1)c1cc(F)c(Oc2cc(F)c(Cl)cc2-c2ccnnc2)cc1F [Example 936, 4-(4-chloro-5-fluoro-2-pyridazin-4-ylphenoxy)-2,5-difluoro-N-1,2,4-thiadiazol-5-ylbenzenesulfonamide]"
,7.72,"O=S(=O)(Nc1ncns1)c1cc(F)c(Oc2cc(Cl)c(F)cc2-c2ccnnc2)cc1F [Example 937, 4-(5-chloro-4-fluoro-2-pyridazin-4-ylphenoxy)-2,5-difluoro-N-1,2,4-thiadiazol-5-ylbenzenesulfonamide]"
,7.60,"N#Cc1cc(S(=O)(=O)Nc2ncns2)ccc1Oc1cc(Cl)c(F)cc1-c1ccnnc1 [Example 938, 4-(5-chloro-4-fluoro-2-pyridazin-4-ylphenoxy)-3-cyano-N-1,2,4-thiadiazol-5-ylbenzenesulfonamide]"
,7.51,"N#Cc1cc(S(=O)(=O)Nc2ncns2)ccc1Oc1cc(C(F)(F)F)ccc1-c1ccnnc1 [Example 940, 3-cyano-4-[2-pyridazin-4-yl-5-(trifluoromethyl)phenoxy]-N-1,2,4-thiadiazol-5-ylbenzenesulfonamide]"
,7.00,"O=S(=O)(Nc1ncccn1)c1cc(Cl)c(Oc2ccc(OC(F)(F)F)cc2-c2ccnnc2)cc1F [Example 945, 5-chloro-2-fluoro-4-[2-pyridazin-4-yl-4-(trifluoromethoxy)phenoxy]-N-pyrimidin-2-ylbenzenesulfonamide]"
,7.64,"O=S(=O)(Nc1nncs1)c1cc(Cl)c(Oc2cc(C(F)(F)F)c(F)cc2-c2ccnnc2)cc1F [Example 947, 5-chloro-2-fluoro-4-[4-fluoro-2-pyridazin-4-yl-5-(trifluoromethyl)phenoxy]-N-1,3,4-thiadiazol-2-ylbenzenesulfonamide]"
,7.06,"Nc1cc(-c2cc(F)ccc2Oc2cc(F)c(S(=O)(=O)Nc3ncccn3)cc2Cl)ccn1 [Example 949, 4-[2-(2-aminopyridin-4-yl)-4-fluorophenoxy]-5-chloro-2-fluoro-N-pyrimidin-2-ylbenzenesulfonamide]"
,7.40,"N#Cc1ccc(-c2ccnnc2)c(Oc2cc(F)c(S(=O)(=O)Nc3ncns3)cc2Cl)c1 [Example 951, 5-chloro-4-(5-cyano-2-pyridazin-4-ylphenoxy)-2-fluoro-N-1,2,4-thiadiazol-5-ylbenzenesulfonamide]"
,7.66,"N#Cc1cc(S(=O)(=O)Nc2ncns2)ccc1Oc1cc(OC(F)(F)F)ccc1-c1ccnnc1 [Example 957, 3-cyano-4-[2-pyridazin-4-yl-5-(trifluoromethoxy)phenoxy]-N-1,2,4-thiadiazol-5-ylbenzenesulfonamide]"
,8.40,"N#Cc1cc(S(=O)(=O)Nc2ncns2)ccc1Oc1ccc(C(F)(F)F)cc1-c1ccncc1 [Example 960, 3-cyano-4-[2-pyridin-4-yl-4-(trifluoromethyl)phenoxy]-N-1,2,4-thiadiazol-5-ylbenzenesulfonamide]"
